Reference: article PMC11345399 (The Journal of Biological Chemistry, 2024)
“And” between values parts separate entries of the source, which are not always exact repeats. Equal values may be shown once.

Legend:
[1] = molecular target: human mitochondrial RNA polymerase (h-mtRNAP) (Homo sapiens, UniProt O00411); format: biochemical
[2] = molecular target: T1, HRV-16 RdRp (Human rhinovirus 16, UniProt Q82122); format: biochemical
[3] = system: EV-71 RdRp; format: biochemical
[4] = molecular target: SARS-CoV-2 RdRp (Severe acute respiratory syndrome coronavirus 2, UniProt P0DTD1); format: biochemical
[5] = molecular target: MERS-CoV RdRp (Middle East respiratory syndrome-related coronavirus, UniProt K9N7C7); format: biochemical
[6] = molecular target: T1, HRV-16 RdRp; format: biochemical; remark: listed apart in the source
[7] = system: EV-71 RdRp; format: biochemical; remark: listed apart in the source
[8] = molecular target: RSV RdRp (Human respiratory syncytial virus A, UniProt P28887); format: biochemical
[9] = molecular target: HMPV RdRp (Human metapneumovirus, UniProt Q6WB93); format: biochemical
[10] = molecular target: HPIV-3 RdRp (Human parainfluenza 3 virus, UniProt P12577); format: biochemical
[11] = molecular target: PIV-5 RdRp (Parainfluenza virus 5, UniProt Q88434); format: biochemical
[12] = molecular target: T1, HRV-16 RdRp; format: biochemical; remark: listed apart in the source
[13] = system: EV-71 RdRp; format: biochemical; remark: listed apart in the source
[14] = molecular target: SARS-CoV-2 RdRp complex (Severe acute respiratory syndrome coronavirus 2, UniProt P0DTD1)
[15] = molecular target: MERS-CoV RdRp complex (Middle East respiratory syndrome-related coronavirus, UniProt K9N7C7)
[16] = molecular target: HRV-16 RdRp (3Dpol) (Human rhinovirus 16, UniProt Q82122)
[17] = molecular target: EV-71 RdRp (3Dpol) (Enterovirus A71, UniProt E5RPG3)
[18] = molecular target: RSV RdRp complex (Human respiratory syncytial virus A, UniProt P28887)
[19] = molecular target: HMPV RdRp complex (Human metapneumovirus, UniProt Q6WB93)
[20] = molecular target: PIV-5 RdRp complex (Parainfluenza virus 5, UniProt Q88434)

Chain of human mitochondrial RNA polymerase (h-mtRNAP) (O00411 42-1230 limits assumed): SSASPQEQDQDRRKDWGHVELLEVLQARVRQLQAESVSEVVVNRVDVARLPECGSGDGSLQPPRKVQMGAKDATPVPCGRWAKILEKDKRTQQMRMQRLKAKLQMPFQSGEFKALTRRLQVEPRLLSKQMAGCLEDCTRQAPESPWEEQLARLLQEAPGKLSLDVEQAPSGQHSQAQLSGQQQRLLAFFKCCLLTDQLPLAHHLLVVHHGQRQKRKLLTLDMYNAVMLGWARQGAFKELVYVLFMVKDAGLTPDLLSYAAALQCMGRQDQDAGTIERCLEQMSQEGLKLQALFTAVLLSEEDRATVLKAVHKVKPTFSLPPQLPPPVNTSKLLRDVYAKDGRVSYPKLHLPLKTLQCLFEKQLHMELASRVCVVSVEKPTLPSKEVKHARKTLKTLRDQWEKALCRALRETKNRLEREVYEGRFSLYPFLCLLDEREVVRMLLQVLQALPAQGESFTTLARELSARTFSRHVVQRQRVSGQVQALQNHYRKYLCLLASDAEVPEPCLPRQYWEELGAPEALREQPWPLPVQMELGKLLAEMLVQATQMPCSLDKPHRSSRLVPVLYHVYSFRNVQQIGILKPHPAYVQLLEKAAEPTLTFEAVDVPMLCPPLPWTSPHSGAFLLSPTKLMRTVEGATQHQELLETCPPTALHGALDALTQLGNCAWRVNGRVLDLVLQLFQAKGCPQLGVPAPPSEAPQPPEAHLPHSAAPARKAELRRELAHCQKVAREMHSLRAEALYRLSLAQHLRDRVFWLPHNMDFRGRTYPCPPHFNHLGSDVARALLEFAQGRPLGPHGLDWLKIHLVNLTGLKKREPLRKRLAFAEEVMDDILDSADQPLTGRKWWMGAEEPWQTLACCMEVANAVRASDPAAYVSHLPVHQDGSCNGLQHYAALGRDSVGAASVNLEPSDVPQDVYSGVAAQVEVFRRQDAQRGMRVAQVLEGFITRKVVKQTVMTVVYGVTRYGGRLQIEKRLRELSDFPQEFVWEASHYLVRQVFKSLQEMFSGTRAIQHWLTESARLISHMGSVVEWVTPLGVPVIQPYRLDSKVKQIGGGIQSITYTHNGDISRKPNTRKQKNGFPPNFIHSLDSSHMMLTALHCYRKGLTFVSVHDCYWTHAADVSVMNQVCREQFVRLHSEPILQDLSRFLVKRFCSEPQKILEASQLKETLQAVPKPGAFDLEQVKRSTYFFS

SMILES: N#C[C@]1(COP(=O)(O)OP(=O)(O)OP(=O)(O)O)O[C@@H](c2ccc3c(N)ncnn23)[C@H](O)[C@@H]1O [GS-646939]
- Selectivity (fold), Vmax/Km ATP over Vmax/Km analog [1]: 1538 fold
- CI average (CIavg) ± standard deviation [2]: 0.04
- Preference for GS-646939 over GS-443902 under competitive conditions [2]: greater than 30 fold
- CI average (CIavg) ± standard deviation [3]: 0.07
- Preference for GS-646939 over GS-443902 under competitive conditions [3]: greater than 30 fold
- Vmax (product fraction) of UTP incorporation at i + 1 [4]: 0.79 ± 0.036
- Vmax (product fraction) of UTP incorporation at i + 1 [5]: 0.91 ± 0.10
- Pattern of inhibition of RNA primer extension after incorporation at position i [6]: immediate chain-termination
- Vmax (product fraction) of UTP incorporation at i + 1 [6]: 0.83 ± 0.012
- Pattern of inhibition of RNA primer extension after incorporation at position i [7]: immediate chain-termination
- Vmax (product fraction) of UTP incorporation at i + 1 [7]: 0.81 ± 0.017
- Pattern of inhibition of RNA primer extension after incorporation at position i [8]: immediate chain termination
- Vmax (product fraction) of UTP incorporation at i + 1 [8]: 0.15 ± 0.0029
- Pattern of inhibition of RNA primer extension after incorporation at position i [9]: immediate chain termination
- Vmax (product fraction) of UTP incorporation at i + 1 [9]: 0.087 ± 0.030
- Pattern of inhibition of RNA primer extension after incorporation at position i [10]: immediate chain termination
- Vmax (product fraction) of UTP incorporation at i + 1 [10]: 0.61 ± 0.0099
- Pattern of inhibition of RNA primer extension after incorporation at position i [11]: immediate chain termination
- Vmax (product fraction) of UTP incorporation at i + 1 [11]: 0.058 ± 0.080
- Inhibition (fold) vs Template A [12]: ~2 fold and 2.0 fold
- UTP [12]: 1.0 µM
- Inhibition (fold) of UTP incorporation across embedded analog [13]: ~9 fold
- Selectivity (fold), Vmax/Km ATP over Vmax/Km analog [14]: 1.37 fold
- Selectivity (fold), Vmax/Km ATP over Vmax/Km analog [15]: 1.17 fold
- Incorporated more efficiently than natural ATP counterpart [16]: 20-50 fold
- Incorporated more efficiently than natural ATP counterpart [17]: 20-50 fold
- Selectivity (fold), Vmax/Km ATP over Vmax/Km analog [18]: 1.58 fold
- Selectivity (fold), Vmax/Km ATP over Vmax/Km analog [19]: 1.73 fold
- Selectivity (fold), Vmax/Km ATP over Vmax/Km analog [20]: 5.05 fold
